According to ChEMBL document CHEMBL1147166, “Structure-activity relationships of methoctramine-related polyamines as muscarinic antagonist: effect of replacing the inner polymethylene chain with cyclic moieties” (Bioorg Med Chem, 2007):

Legend:
[1] = biological target: Muscarinic acetylcholine receptor M3 (Cavia porcellus) (UniProt Q8VH26); assay: Antagonist potency at muscarinic receptor M3 in guinea pig ileum; type: functional, tissue-based
[2] = biological target: T1, Muscarinic acetylcholine receptor M4 (Homo sapiens) (UniProt P08173); assay: Antagonist potency at muscarinic receptor M4 in rabbit vas deferens; type: functional, tissue-based; details: Oryctolagus cuniculus, target entry is the homologue from another species
T1 sequence (whole entry): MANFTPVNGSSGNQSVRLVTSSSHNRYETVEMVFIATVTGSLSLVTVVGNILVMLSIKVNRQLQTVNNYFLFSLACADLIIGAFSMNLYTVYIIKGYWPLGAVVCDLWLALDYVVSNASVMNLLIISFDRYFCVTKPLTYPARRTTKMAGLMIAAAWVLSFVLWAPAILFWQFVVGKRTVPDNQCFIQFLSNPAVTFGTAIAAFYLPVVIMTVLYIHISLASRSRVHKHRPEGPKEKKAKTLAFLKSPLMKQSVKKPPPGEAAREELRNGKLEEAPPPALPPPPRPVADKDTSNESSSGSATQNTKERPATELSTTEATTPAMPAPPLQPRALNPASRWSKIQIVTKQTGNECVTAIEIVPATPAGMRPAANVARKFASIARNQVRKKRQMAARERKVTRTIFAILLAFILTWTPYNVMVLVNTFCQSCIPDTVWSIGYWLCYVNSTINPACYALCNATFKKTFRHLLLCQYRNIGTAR

[3] = biological target: T2, Muscarinic acetylcholine receptor M2 (Homo sapiens) (UniProt P08172); assay: Antagonist potency at muscarinic receptor M2 in guinea pig atrium; type: functional, tissue-based; details: Cavia porcellus; Cardiac atrium; target entry is the homologue from another species
T2 sequence (whole entry): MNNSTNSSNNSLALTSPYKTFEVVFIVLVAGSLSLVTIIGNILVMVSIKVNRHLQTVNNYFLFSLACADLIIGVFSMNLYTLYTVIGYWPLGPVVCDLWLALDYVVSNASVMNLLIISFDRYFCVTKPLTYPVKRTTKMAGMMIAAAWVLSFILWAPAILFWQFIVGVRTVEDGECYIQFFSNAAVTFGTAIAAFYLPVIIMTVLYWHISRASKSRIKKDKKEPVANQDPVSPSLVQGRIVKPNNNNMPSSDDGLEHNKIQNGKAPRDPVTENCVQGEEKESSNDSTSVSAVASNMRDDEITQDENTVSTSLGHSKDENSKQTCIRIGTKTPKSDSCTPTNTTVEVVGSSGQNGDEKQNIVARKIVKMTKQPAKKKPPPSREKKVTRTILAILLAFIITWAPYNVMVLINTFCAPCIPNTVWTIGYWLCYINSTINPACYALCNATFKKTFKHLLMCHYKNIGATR

[4] = biological target: Acetylcholinesterase (Homo sapiens, UniProt P22303); assay: Inhibition of human erythrocyte recombinant AchE after 20 mins
Sequence of Acetylcholinesterase (P22303 whole entry): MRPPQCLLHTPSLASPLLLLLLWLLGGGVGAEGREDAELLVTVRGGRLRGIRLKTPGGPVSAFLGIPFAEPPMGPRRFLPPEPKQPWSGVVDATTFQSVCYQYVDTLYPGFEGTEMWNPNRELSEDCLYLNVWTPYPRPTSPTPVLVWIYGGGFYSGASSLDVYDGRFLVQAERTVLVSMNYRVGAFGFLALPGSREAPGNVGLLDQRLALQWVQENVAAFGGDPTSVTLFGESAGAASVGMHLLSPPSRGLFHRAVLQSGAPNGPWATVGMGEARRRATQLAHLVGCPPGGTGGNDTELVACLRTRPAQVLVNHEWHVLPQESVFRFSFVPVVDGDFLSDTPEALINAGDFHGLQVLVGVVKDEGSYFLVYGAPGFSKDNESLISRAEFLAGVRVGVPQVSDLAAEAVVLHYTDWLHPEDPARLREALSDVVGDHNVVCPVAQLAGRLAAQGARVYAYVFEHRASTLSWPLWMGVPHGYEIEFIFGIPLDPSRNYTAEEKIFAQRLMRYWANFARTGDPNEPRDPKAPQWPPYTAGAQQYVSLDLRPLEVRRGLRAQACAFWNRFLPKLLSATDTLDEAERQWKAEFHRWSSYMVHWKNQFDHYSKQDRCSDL

[5] = biological target: Cholinesterase (Homo sapiens, UniProt P06276); assay: Inhibition of human serum recombinant BChE after 20 mins
Sequence of Cholinesterase (P06276 whole entry): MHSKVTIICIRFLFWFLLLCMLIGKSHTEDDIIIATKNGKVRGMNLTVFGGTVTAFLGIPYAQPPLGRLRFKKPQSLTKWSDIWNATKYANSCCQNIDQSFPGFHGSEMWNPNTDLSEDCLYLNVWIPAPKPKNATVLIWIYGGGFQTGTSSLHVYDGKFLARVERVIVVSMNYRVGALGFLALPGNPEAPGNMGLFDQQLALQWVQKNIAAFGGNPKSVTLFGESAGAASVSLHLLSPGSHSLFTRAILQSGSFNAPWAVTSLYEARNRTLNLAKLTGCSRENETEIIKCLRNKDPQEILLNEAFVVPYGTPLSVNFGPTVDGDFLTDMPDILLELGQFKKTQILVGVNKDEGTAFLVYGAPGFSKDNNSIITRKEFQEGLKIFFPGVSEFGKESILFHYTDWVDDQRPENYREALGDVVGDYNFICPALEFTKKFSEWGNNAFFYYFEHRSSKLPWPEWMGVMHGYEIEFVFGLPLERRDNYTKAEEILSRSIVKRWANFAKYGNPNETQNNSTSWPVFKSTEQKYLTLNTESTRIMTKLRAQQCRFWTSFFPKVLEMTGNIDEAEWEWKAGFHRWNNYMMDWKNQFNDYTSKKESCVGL

[6] = tested on: Mus musculus; assay: Antinociceptive activity in mouse assessed as licking latency at 0.01 ug, icv after 45 mins by hot plate method; type: functional
[7] = biological target: Muscarinic acetylcholine receptor M3 (Homo sapiens, UniProt P20309); assay: Displacement of [3H] N-methyl-scopolamine chloride from human muscarinic receptor M3 expressed in CHO cells; type: cell-based
Sequence of Muscarinic acetylcholine receptor M3 (P20309 whole entry): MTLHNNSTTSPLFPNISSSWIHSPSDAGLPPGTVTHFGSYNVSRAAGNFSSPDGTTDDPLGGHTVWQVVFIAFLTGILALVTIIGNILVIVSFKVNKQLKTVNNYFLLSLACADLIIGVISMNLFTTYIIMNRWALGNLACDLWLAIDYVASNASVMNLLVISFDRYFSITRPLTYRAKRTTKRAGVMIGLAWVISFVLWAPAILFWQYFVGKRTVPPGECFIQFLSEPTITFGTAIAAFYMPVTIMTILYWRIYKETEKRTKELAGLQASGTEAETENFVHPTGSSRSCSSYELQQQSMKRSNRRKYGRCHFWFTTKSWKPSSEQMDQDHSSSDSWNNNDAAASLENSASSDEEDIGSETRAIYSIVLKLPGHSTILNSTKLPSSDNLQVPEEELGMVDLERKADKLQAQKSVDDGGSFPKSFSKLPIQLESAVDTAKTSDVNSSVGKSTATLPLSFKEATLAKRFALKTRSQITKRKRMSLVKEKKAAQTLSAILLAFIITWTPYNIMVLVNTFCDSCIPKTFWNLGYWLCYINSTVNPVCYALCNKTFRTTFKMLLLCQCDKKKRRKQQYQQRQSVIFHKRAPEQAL

[8] = tested on: Mus musculus; assay: Antinociceptive activity in mouse assessed as licking latency at 0.01 ug, icv after 30 mins by hot plate method; type: functional
[9] = tested on: Mus musculus; assay: Antinociceptive activity in mouse assessed as licking latency at 1.0 ug, icv after 15 mins by hot plate method; type: functional
[10] = biological target: T3, Muscarinic acetylcholine receptor M5 (Homo sapiens, UniProt P08912); assay: Displacement of [3H] N-methyl-scopolamine chloride from human muscarinic receptor M5 expressed in CHO cells; type: cell-based
T3 sequence (P08912 whole entry): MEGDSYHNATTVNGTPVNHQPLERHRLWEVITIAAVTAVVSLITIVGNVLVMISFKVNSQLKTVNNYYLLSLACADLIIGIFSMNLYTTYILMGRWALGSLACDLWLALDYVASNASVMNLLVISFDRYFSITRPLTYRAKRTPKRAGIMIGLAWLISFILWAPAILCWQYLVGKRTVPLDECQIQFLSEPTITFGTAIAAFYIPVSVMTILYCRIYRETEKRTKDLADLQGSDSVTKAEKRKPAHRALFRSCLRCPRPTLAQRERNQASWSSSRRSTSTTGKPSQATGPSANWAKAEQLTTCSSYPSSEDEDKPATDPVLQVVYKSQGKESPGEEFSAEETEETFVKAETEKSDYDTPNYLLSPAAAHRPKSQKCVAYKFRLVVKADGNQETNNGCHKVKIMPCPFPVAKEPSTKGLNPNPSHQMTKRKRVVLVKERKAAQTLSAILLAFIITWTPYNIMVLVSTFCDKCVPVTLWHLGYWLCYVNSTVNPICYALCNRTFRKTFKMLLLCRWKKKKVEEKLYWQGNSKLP

[11] = tested on: Mus musculus; assay: Antinociceptive activity in mouse assessed as licking latency at 0.005 ug, icv after 60 mins by hot plate method; type: functional
[12] = tested on: Mus musculus; assay: Antinociceptive activity in mouse assessed as licking latency at 0.05 ug, icv after 15 mins by hot plate method; type: functional
[13] = biological target: T4, Muscarinic acetylcholine receptor M1 (Homo sapiens, UniProt P11229); assay: Displacement of [3H] N-methyl-scopolamine chloride from human muscarinic receptor M1 expressed in CHO cells; type: cell-based
T4 sequence (P11229 whole entry): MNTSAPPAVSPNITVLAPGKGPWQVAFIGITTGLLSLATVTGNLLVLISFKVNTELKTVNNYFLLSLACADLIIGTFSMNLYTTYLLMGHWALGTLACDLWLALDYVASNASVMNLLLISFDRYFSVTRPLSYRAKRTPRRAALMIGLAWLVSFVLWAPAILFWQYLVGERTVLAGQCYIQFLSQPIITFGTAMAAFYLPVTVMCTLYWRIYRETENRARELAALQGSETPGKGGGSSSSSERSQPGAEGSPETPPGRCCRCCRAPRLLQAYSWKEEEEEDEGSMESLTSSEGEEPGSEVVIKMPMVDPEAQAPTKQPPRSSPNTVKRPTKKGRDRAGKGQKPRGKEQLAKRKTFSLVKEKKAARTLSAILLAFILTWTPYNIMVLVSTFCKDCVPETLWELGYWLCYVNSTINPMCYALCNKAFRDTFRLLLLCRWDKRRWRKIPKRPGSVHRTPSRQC

[14] = tested on: Mus musculus; assay: Antinociceptive activity in mouse assessed as licking latency at 0.005 ug, icv after 30 mins by hot plate method; type: functional
[15] = tested on: Mus musculus; assay: Antinociceptive activity in mouse assessed as licking latency at 0.01 ug, icv after 60 mins by hot plate method; type: functional
[16] = tested on: Mus musculus; assay: Antinociceptive activity in mouse assessed as licking latency at 0.05 ug, icv after 30 mins by hot plate method; type: functional
[17] = tested on: Mus musculus; assay: Antinociceptive activity in mouse assessed as licking latency at 0.005 ug, icv after 45 mins by hot plate method; type: functional
[18] = biological target: T5, Muscarinic acetylcholine receptor M4 (Homo sapiens, UniProt P08173); assay: Displacement of [3H] N-methyl-scopolamine chloride from human muscarinic receptor M4 expressed in CHO cells; type: cell-based
T5 sequence (P08173 whole entry): T1 sequence (whole entry)

[19] = tested on: Mus musculus; assay: Antinociceptive activity in mouse assessed as licking latency at 0.05 ug, icv after 45 mins by hot plate method; type: functional
[20] = tested on: Mus musculus; assay: Antinociceptive activity in mouse assessed as licking latency at 0.005 ug, icv after 15 mins by hot plate method; type: functional
[21] = tested on: Mus musculus; assay: Antinociceptive activity in mouse assessed as licking latency at 1.0 ug, icv after 30 mins by hot plate method; type: functional
[22] = tested on: Mus musculus; assay: Antinociceptive activity in mouse assessed as licking latency at 1.0 ug, icv after 45 mins by hot plate method; type: functional
[23] = tested on: Mus musculus; assay: Antinociceptive activity in mouse assessed as licking latency at 1.0 ug, icv after 60 mins by hot plate method; type: functional
[24] = tested on: Mus musculus; assay: Antinociceptive activity in mouse assessed as licking latency at 0.01 ug, icv after 15 mins by hot plate method; type: functional
[25] = tested on: Mus musculus; assay: Antinociceptive activity in mouse assessed as licking latency at 0.05 ug, icv after 60 mins by hot plate method; type: functional
[26] = tested on: Mus musculus; assay: Antinociceptive activity in mouse assessed as licking latency at 1 mg/kg, ip by hot plate method; type: functional; details: route intraperitoneal
[27] = tested on: Mus musculus; assay: Antinociceptive activity in mouse assessed as licking latency at 5 mg/kg, ip by hot plate method; type: functional; details: route intraperitoneal

Sequence of Muscarinic acetylcholine receptor M3 (Cavia porcellus) (Q8VH26 1-587): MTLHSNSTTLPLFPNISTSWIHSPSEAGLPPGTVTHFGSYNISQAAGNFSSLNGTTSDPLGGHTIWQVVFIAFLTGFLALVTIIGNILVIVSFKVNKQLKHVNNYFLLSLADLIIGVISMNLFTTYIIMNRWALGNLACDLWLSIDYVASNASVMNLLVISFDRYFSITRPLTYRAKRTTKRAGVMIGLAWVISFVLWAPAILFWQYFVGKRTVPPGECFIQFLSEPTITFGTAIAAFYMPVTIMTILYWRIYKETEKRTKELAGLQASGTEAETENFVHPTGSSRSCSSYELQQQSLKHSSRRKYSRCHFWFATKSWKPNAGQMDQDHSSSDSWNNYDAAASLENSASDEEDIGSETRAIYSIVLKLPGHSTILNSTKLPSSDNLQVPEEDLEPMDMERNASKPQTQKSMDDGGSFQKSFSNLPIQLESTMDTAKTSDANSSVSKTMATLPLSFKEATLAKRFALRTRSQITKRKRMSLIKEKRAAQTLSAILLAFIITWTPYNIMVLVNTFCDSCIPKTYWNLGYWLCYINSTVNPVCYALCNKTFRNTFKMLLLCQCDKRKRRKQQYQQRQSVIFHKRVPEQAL

Row | Structure (SMILES) | pKb [1] | pKb [2] | pKb [3] | also measured
1 | COc1ccccc1CNCCCCCC(=O)N1CCC(C2CCN(C(=O)CCCCCNCc3ccccc3OC)CC2)CC1 | 5.62 | 6 | 6.5 | 
2 | COc1ccccc1CNCCCCCC(=O)N1CCC(CCC2CCN(C(=O)CCCCCNCc3ccccc3OC)CC2)CC1 | 5.14 | 6.09 | 5.91 | IC50 [4]: 135 nM; IC50 [5]: 18600 nM
3 | COc1ccccc1CNCCCCCCNCCCCCCCCNCCCCCCNCc1ccccc1OC [METHOCTRAMINE] | 6.32 | 6.45 |  | Time [6]: 19.3 s; Ki [7]: 525 nM; Time [8]: 22.5 s; Time [9]: 20.6 s; Ki [10]: 550 nM; Time [11]: 16.6 s; Time [12]: 24.1 s; Ki [13]: 83.2 nM; Time [14]: 18.4 s; Time [15]: 17.2 s; Time [16]: 23.9 s; Time [17]: 18.3 s; Ki [18]: 107 nM; Time [19]: 18.7 s; Time [20]: 20.2 s; Time [21]: 21.3 s; Time [22]: 17.5 s; Time [23]: 15.5 s; Time [24]: 23.4 s; Time [25]: 14.4 s
4 | COc1ccccc1CNCCCCCC(=O)N1CCC(CCCC2CCN(C(=O)CCCCCNCc3ccccc3OC)CC2)CC1 | 5.09 | < 5 | 5.11 | 
5 | COc1ccccc1CNCCCCCCNc1ccc(Cc2ccc(NCCCCCCNCc3ccccc3OC)cc2)cc1 | 5.35 | < 5 | < 5 | 
6 | C=CCN1CC[C@]23c4c5ccc(O)c4O[C@H]2C(=O)CC[C@@]3(O)[C@H]1C5 [NALOXONE] |  |  |  | Activity [26]: 15.1 s
7 | CN1[C@@H]2CC[C@H]1C[C@@H](OC(=O)C(CO)c1ccccc1)C2 (some centres not stated) [ATROPINE] |  |  |  | Activity [27]: 14.9 s
8 | COc1ccccc1CNCCCCCCN1CCC(C2CCN(CCCCCCNCc3ccccc3OC)CC2)CC1 | 6.08 | 6.13 | 7.12 | 
9 | COc1ccccc1CNCCCCCCN1CCC(CCCC2CCN(CCCCCCNCc3ccccc3OC)CC2)CC1 | 6.37 | 5.64 | 7.52 | 
10 | COc1ccccc1CNCCCCCCNc1ccc(CCc2ccc(NCCCCCCNCc3ccccc3OC)cc2)cc1 |  | < 5.52 | < 5 | 
11 | COc1ccccc1CNCCCCCCN1CCC(CC2CCN(CCCCCCNCc3ccccc3OC)CC2)CC1 | 5.82 | 5.39 | 7.16 | 
12 | COc1ccccc1CNCCCCCC(=O)Nc1ccc(CCc2ccc(NC(=O)CCCCCNCc3ccccc3OC)cc2)cc1 | < 5 | < 5 | < 5 | 
13 | COc1ccccc1CNCCCCCCNc1ccc(-c2ccc(NCCCCCCNCc3ccccc3OC)cc2)cc1 |  | < 5 | < 5 | 
14 | COc1ccccc1CNCCCCCC(=O)Nc1ccc(Cc2ccc(NC(=O)CCCCCNCc3ccccc3OC)cc2)cc1 | 5.32 | < 5 | 5.47 | 
15 | COc1ccccc1CNCCCCCC(=O)N1CCC(CC2CCN(C(=O)CCCCCNCc3ccccc3OC)CC2)CC1 | 5.48 | 5.37 | 6.29 | 
16 | COc1ccccc1CNCCCCCC(=O)Nc1ccc(-c2ccc(NC(=O)CCCCCNCc3ccccc3OC)cc2)cc1 |  | 5.21 | 5.31 | 
